Assay results as given in PubChem BioAssay (NCI).
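Growth conditions: 96-well plates. Treatment: test compound, 48 hours, 5 concentrations. Analysis: linear interpolation between bracketing concentrations; unreached endpoints set to highest concentration. The concentration for 50% growth inhibition is given as GI50. TGI: total growth inhibition.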

Tests used:
Assay in all cases: DTP human tumour cell line panel, 48 h
OVCAR-5 ovarian = tested on: OVCAR-5 ovarian
NCI-H522 lung = tested on: NCI-H522 lung
SN12C renal = tested on: SN12C renal
TK-10 renal = tested on: TK-10 renal
RPMI-8226 leukemia = tested on: RPMI-8226 leukemia
SK-MEL-5 melanoma = tested on: SK-MEL-5 melanoma
HCT-15 colon = tested on: HCT-15 colon
U251 CNS = tested on: U251 CNS
OVCAR-3 ovarian = tested on: OVCAR-3 ovarian
SNB-75 CNS = tested on: SNB-75 CNS
NCI-H460 lung = tested on: NCI-H460 lung
HS 578T breast = tested on: HS 578T breast
NCI-H23 lung = tested on: NCI-H23 lung
MDA-MB-231 breast = tested on: MDA-MB-231 breast
COLO 205 colon = tested on: COLO 205 colon
SW-620 colon = tested on: SW-620 colon
HCT-116 colon = tested on: HCT-116 colon
CAKI-1 renal = tested on: CAKI-1 renal
HL-60(TB) leukemia = tested on: HL-60(TB) leukemia
SNB-19 CNS = tested on: SNB-19 CNS
HOP-92 NSCLC = tested on: HOP-92 NSCLC
KM12 colon = tested on: KM12 colon
SF-539 CNS = tested on: SF-539 CNS
NCI-H226 lung = tested on: NCI-H226 lung
MCF7 breast = tested on: MCF7 breast
HOP-62 NSCLC = tested on: HOP-62 NSCLC
MALME-3M melanoma = tested on: MALME-3M melanoma
OVCAR-4 ovarian = tested on: OVCAR-4 ovarian
PC-3 prostate = tested on: PC-3 prostate
DU-145 prostate = tested on: DU-145 prostate
IGROV1 ovarian = tested on: IGROV1 ovarian
SK-OV-3 ovarian = tested on: SK-OV-3 ovarian
MDA-MB-468 breast = tested on: MDA-MB-468 breast
MOLT-4 leukemia = tested on: MOLT-4 leukemia
UO-31 renal = tested on: UO-31 renal
MDA-MB-435 = tested on: MDA-MB-435
786-0 renal = tested on: 786-0 renal
SF-268 CNS = tested on: SF-268 CNS
A498 renal = tested on: A498 renal
BT-549 breast = tested on: BT-549 breast
HCC-2998 colon = tested on: HCC-2998 colon
NCI/ADR-RES ovarian = tested on: NCI/ADR-RES ovarian
CCRF-CEM leukemia = tested on: CCRF-CEM leukemia
OVCAR-8 ovarian = tested on: OVCAR-8 ovarian
UACC-257 melanoma = tested on: UACC-257 melanoma
SF-295 CNS = tested on: SF-295 CNS
ACHN renal = tested on: ACHN renal
HT29 colon = tested on: HT29 colon
EKVX NSCLC = tested on: EKVX NSCLC
SK-MEL-28 melanoma = tested on: SK-MEL-28 melanoma
UACC-62 melanoma = tested on: UACC-62 melanoma
A549 NSCLC = tested on: A549 NSCLC
SK-MEL-2 melanoma = tested on: SK-MEL-2 melanoma
RXF 393 renal = tested on: RXF 393 renal
LOX IMVI melanoma = tested on: LOX IMVI melanoma
T-47D breast = tested on: T-47D breast
M14 melanoma = tested on: M14 melanoma
K-562 leukemia = tested on: K-562 leukemia

SMILES: C=C1CC[C@@H]2[C@]3(C)COC(c4ccco4)O[C@@H]3CC[C@@]2(C)[C@@H]1C/C=C1/C(=O)OCC1OC(C)=O (stereo partly specified)
- GI50 (OVCAR-5 ovarian): 17.6 µM
- TGI (OVCAR-5 ovarian): 31.9 µM
- GI50 (NCI-H522 lung): 13.6 µM
- TGI (NCI-H522 lung): 26.7 µM
- GI50 (SN12C renal): 14.4 µM
- TGI (SN12C renal): 30.6 µM
- GI50 (TK-10 renal): 25.9 µM
- TGI (TK-10 renal): 62.4 µM
- GI50 (RPMI-8226 leukemia): 3.11 µM
- TGI (RPMI-8226 leukemia): 38.1 µM
- GI50 (SK-MEL-5 melanoma): 15.8 µM
- TGI (SK-MEL-5 melanoma): 31.3 µM
- GI50 (HCT-15 colon): 15.6 µM
- TGI (HCT-15 colon): 38.4 µM
- GI50 (U251 CNS): 15.2 µM
- TGI (U251 CNS): 28.6 µM
- GI50 (OVCAR-3 ovarian): 10.8 µM
- TGI (OVCAR-3 ovarian): 26.6 µM
- GI50 (SNB-75 CNS): 5.83 µM
- TGI (SNB-75 CNS): 49.6 µM
- GI50 (NCI-H460 lung): 18.2 µM
- TGI (NCI-H460 lung): 38.6 µM
- GI50 (HS 578T breast): 26.1 µM
- TGI (HS 578T breast): > 100 µM
- GI50 (NCI-H23 lung): 17.6 µM
- TGI (NCI-H23 lung): 35.2 µM
- GI50 (MDA-MB-231 breast): 15 µM
- TGI (MDA-MB-231 breast): 30.9 µM
- GI50 (COLO 205 colon): 16 µM
- TGI (COLO 205 colon): 31.3 µM
- GI50 (SW-620 colon): 9.77 µM
- TGI (SW-620 colon): 23.8 µM
- GI50 (HCT-116 colon): 10.8 µM
- TGI (HCT-116 colon): 26 µM
- GI50 (CAKI-1 renal): 15.8 µM
- TGI (CAKI-1 renal): 32.2 µM
- GI50 (HL-60(TB) leukemia): 9.35 µM
- TGI (HL-60(TB) leukemia): 85.6 µM
- GI50 (SNB-19 CNS): 25.3 µM
- TGI (SNB-19 CNS): 84.2 µM
- GI50 (HOP-92 NSCLC): 12.3 µM
- TGI (HOP-92 NSCLC): 45.2 µM
- GI50 (KM12 colon): 21.7 µM
- TGI (KM12 colon): 68.7 µM
- GI50 (SF-539 CNS): 14 µM
- TGI (SF-539 CNS): 27 µM
- GI50 (NCI-H226 lung): 16.6 µM
- TGI (NCI-H226 lung): 35.1 µM
- GI50 (MCF7 breast): 12.4 µM
- TGI (MCF7 breast): 32.4 µM
- GI50 (HOP-62 NSCLC): 21.8 µM
- TGI (HOP-62 NSCLC): 55.7 µM
- GI50 (MALME-3M melanoma): 14.7 µM
- TGI (MALME-3M melanoma): 29.3 µM
- GI50 (OVCAR-4 ovarian): 13.5 µM
- TGI (OVCAR-4 ovarian): 38.4 µM
- GI50 (PC-3 prostate): 13.2 µM
- TGI (PC-3 prostate): 39.6 µM
- GI50 (DU-145 prostate): 15.2 µM
- TGI (DU-145 prostate): 29.5 µM
- GI50 (IGROV1 ovarian): 16.5 µM
- TGI (IGROV1 ovarian): 34.2 µM
- GI50 (SK-OV-3 ovarian): 57.7 µM
- TGI (SK-OV-3 ovarian): > 100 µM
- GI50 (MDA-MB-468 breast): 13.4 µM
- TGI (MDA-MB-468 breast): 26.6 µM
- GI50 (MOLT-4 leukemia): 19.6 µM
- TGI (MOLT-4 leukemia): > 100 µM
- GI50 (UO-31 renal): 13.2 µM
- TGI (UO-31 renal): 26 µM
- GI50 (MDA-MB-435): 15.6 µM
- TGI (MDA-MB-435): 37 µM
- GI50 (786-0 renal): 18 µM
- TGI (786-0 renal): 32.8 µM
- GI50 (SF-268 CNS): 27.9 µM
- TGI (SF-268 CNS): > 100 µM
- GI50 (A498 renal): > 100 µM
- TGI (A498 renal): > 100 µM
- GI50 (BT-549 breast): 15 µM
- TGI (BT-549 breast): 29.1 µM
- GI50 (HCC-2998 colon): 16.8 µM
- TGI (HCC-2998 colon): 31.4 µM
- GI50 (NCI/ADR-RES ovarian): 17 µM
- TGI (NCI/ADR-RES ovarian): 38 µM
- GI50 (CCRF-CEM leukemia): 2.56 µM
- TGI (CCRF-CEM leukemia): 9.9 µM
- GI50 (OVCAR-8 ovarian): 12.8 µM
- TGI (OVCAR-8 ovarian): 28.7 µM
- GI50 (UACC-257 melanoma): 15.5 µM
- TGI (UACC-257 melanoma): 32.8 µM
- GI50 (SF-295 CNS): 25.9 µM
- TGI (SF-295 CNS): > 100 µM
- GI50 (ACHN renal): 14.9 µM
- TGI (ACHN renal): 28.8 µM
- GI50 (HT29 colon): 13.8 µM
- TGI (HT29 colon): 30.7 µM
- GI50 (EKVX NSCLC): 14.5 µM
- TGI (EKVX NSCLC): 31.4 µM
- GI50 (SK-MEL-28 melanoma): 15.7 µM
- TGI (SK-MEL-28 melanoma): 29.7 µM
- GI50 (UACC-62 melanoma): 13.6 µM
- TGI (UACC-62 melanoma): 28.8 µM
- GI50 (A549 NSCLC): 28.2 µM
- TGI (A549 NSCLC): > 100 µM
- GI50 (SK-MEL-2 melanoma): 14.6 µM
- TGI (SK-MEL-2 melanoma): 29 µM
- GI50 (RXF 393 renal): 11.1 µM
- TGI (RXF 393 renal): 24.9 µM
- GI50 (LOX IMVI melanoma): 11.8 µM
- TGI (LOX IMVI melanoma): 24.1 µM
- GI50 (T-47D breast): 18.6 µM
- TGI (T-47D breast): 55.1 µM
- GI50 (M14 melanoma): 16.3 µM
- TGI (M14 melanoma): 34.2 µM
- GI50 (K-562 leukemia): 5.84 µM
- TGI (K-562 leukemia): > 100 µM
